In patent US8569011B2, “Fluorescent derivatives of polyamines, method for preparing same and applications thereof as diagnosis tools in the treatment of cancerous tumors” (Pierre Fabre Medicament, priority 2007, dated 2013):

Key:
[1] = test system: BLUE-1; test: Cytotoxicity, residual ATP (ATPlite kit), 72 hours, BLUE-1; type: cell-based; settings: BLUE-1 leukemic line, 72 hours incubation
Experimental: (§1) An anticancer compound is used, a derivative of epipodophyllotoxin, whose intracellular penetration is dependent on the polyamine transporter, such as the compound described in example 27 of patent application WO 2005/100363 and, as reference compound, etoposide which is a non-vectored epipodophyllotoxin. These two compounds have the same mechanism of action on cancer cells: they are both inhibitors of topoisomerase 2.
(§2) A panel of leukemic lines was assayed to ascertain probe incorporation, here the one described in example 1, regarding the sensitivity to a vectored agent such as the compound in example 27 of patent application WO 2005/100363 and by comparison with non-vectored etoposide. After an incubation time of 72 hours with the compound of example 27 in patent application WO 2005/100363 or with etoposide, cytotoxicity was evaluated using the ATPlite kit. Cells from the same line were also incubated in the presence of the probe described in example 1, and were analyzed by flow cytometry. Fluorescence intensity measured at 525 nm was followed from 0 to 1 hour 30 minutes and the slope of intensity variation was calculated.

[2] = test system: U-937; test: Cytotoxicity, residual ATP (ATPlite kit), 72 hours, U-937; type: cell-based; settings: Homo sapiens, U-937 leukemic line, 72 hours incubation
Experimental: as §1, §2

[3] = test system: CEM; test: Cytotoxicity, residual ATP (ATPlite kit), 72 hours, CEM; type: cell-based; settings: Homo sapiens, CCRF-CEM, CEM leukemic line, 72 hours incubation
Experimental: as §1, §2

[4] = test system: BL-41; test: Cytotoxicity, residual ATP (ATPlite kit), 72 hours, BL-41; type: cell-based; settings: Homo sapiens, BL-41 leukemic line, 72 hours incubation
Experimental: as §1, §2

[5] = test system: KG-1; test: Cytotoxicity, residual ATP (ATPlite kit), 72 hours, KG-1; type: cell-based; settings: Homo sapiens, KG-1 leukemic line, 72 hours incubation
Experimental: as §1, §2

[6] = test system: U-937; test: Fluorescent probe incorporation (polyamine transport activity) by flow cytometry, U-937; type: cell-based; settings: (cell intensity with probe presence) - (cell intensity without probe presence), emission 525 nm
Experimental: (§3) Cells taken from biopsies are mechanically separated with or without the presence of trypsin depending on the constitution of the tissue under consideration. The haematopoietic cells are separated and isolated following conventional preparation methods for blood cells. Once isolated after a fairly short time to ensure the viability of the cells being examined, the cells are placed in the presence of the probe such as synthesized in examples 1 to 3 for example, and left to incubate in the recommended culture medium for the tissue under consideration in the presence of aminoguanidine. Aminoguanidine is used to prevent in vitro denaturating of the polyamines. […] An incubation time of one to four hours is sufficient and allows detection of fluorescence by immunochemistry or flow cytometry, by choosing excitation and emission wavelengths compatible with the substituent of the fluorescent probe. This analysis is conducted by flow cytometry or histochemistry following standard methodology in the study described below, by exciting the probe obtained in example 1, N-(3-aminopropyl)-N′-{3-[methyl-(7-nitrobenzo[1,2,5]oxadiazol-4-yl)-amino]-propyl}-butane-1,4-diamine with a 488 nm source and measuring fluorescence emission at 525 nm. […]
(§4) For all the assayed lines, the capacity to incorporate the fluorescent probe, characterized by the fluorescence measured by flow cytometry, was also measured.

[7] = test system: CEM; test: Fluorescent probe incorporation (polyamine transport activity) by flow cytometry, CEM; type: cell-based; settings: (cell intensity with probe presence) - (cell intensity without probe presence), emission 525 nm
Experimental: as §3, §4

[8] = test system: A549 cells; test: Selectivity of the probes vis-a-vis tumor cells: probe incorporation in A549 cells compared with MRC-5 cells; type: cell-based, human
Experimental: as §3

[9] = test system: BLUE-1; test: Fluorescent probe incorporation (polyamine transport activity) by flow cytometry, BLUE-1; type: cell-based; settings: (cell intensity with probe presence) - (cell intensity without probe presence), emission 525 nm
Experimental: as §3, §4

[10] = test system: KG-1; test: Fluorescent probe incorporation (polyamine transport activity) by flow cytometry, KG-1; type: cell-based; settings: (cell intensity with probe presence) - (cell intensity without probe presence), emission 525 nm
Experimental: as §3, §4

[11] = test system: BL-41; test: Fluorescent probe incorporation (polyamine transport activity) by flow cytometry, BL-41; type: cell-based; settings: (cell intensity with probe presence) - (cell intensity without probe presence), emission 525 nm
Experimental: as §3, §4

## COc1cc([C@@H]2c3cc4c(cc3[C@@H](O[C@@H]3O[C@@H]5CO[C@@H](C)O[C@H]5[C@H](O)[C@H]3O)[C@H]3COC(=O)[C@H]23)OCO4)cc(OC)c1O [Etoposide, etoposide]
[1]
  IC50: 1000 nM
[2]
  IC50: 400 nM
[3]
  IC50: 60 nM
[4]
  IC50: 400 nM
[5]
  IC50: 5000 nM

## CN(CCCNCCCCNCCCN)c1ccc([N+](=O)[O-])c2nonc12 [Example 1, N-(3-aminopropyl)-N′-{3-(methyl-(7-nitrobenzo[1,2,5]oxadiazol-4-yl)-amino)-propyl}-butane-1,4-diamine]
[6]
  Polyamine transport activity: 33 Arbitrary Unit of fluorescence
[7]
  Polyamine transport activity: 421 Arbitrary Unit of fluorescence
[8]; flow cytometry, A549 vs MRC-5
  Incorporation differential tumoral cells versus healthy cells: confirmed by flow cytometry
[8]; fluorescence microscope, slide cultured cells, A549 (FIG. 1A) vs MRC-5 healthy lung (FIG. 1B), excitation 488 nm, emission 525 nm
  Incorporation of the probe in tumoral cells versus cells from healthy tissue: much greater incorporation
[9]
  Polyamine transport activity: 58 Arbitrary Unit of fluorescence
[10]
  Polyamine transport activity: 17 Arbitrary Unit of fluorescence
[11]
  Polyamine transport activity: 164 Arbitrary Unit of fluorescence
